From PubChem BioAssay (NCI)
“And” between values parts separate entries of the source, which are not always exact repeats. Equal values may be shown once.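 Grown in 96-well plates, cells were treated for 48 hours with each compound at five concentrations. Insufficient inhibition: endpoint recorded as highest concentration tested. GI50 = concentration required for 50% inhibition of growth. TGI: concentration producing complete growth inhibition.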

Tests used:
Assay in all cases: NCI anticancer screen, dose series, 48 h
MOLT-4 leukemia = system: MOLT-4 leukemia
RPMI-8226 leukemia = system: RPMI-8226 leukemia
OVCAR-8 ovarian = system: OVCAR-8 ovarian
HCT-15 colon = system: HCT-15 colon
OVCAR-4 ovarian = system: OVCAR-4 ovarian
SN12C renal = system: SN12C renal
NCI-H23 lung = system: NCI-H23 lung
EKVX NSCLC = system: EKVX NSCLC
SF-295 CNS = system: SF-295 CNS
SK-MEL-2 melanoma = system: SK-MEL-2 melanoma

| Structure (SMILES) | GI50 (MOLT-4 leukemia) | TGI (MOLT-4 leukemia) | GI50 (RPMI-8226 leukemia) | TGI (RPMI-8226 leukemia) | GI50 (OVCAR-8 ovarian) | TGI (OVCAR-8 ovarian) | GI50 (HCT-15 colon) | TGI (HCT-15 colon) | GI50 (OVCAR-4 ovarian) | TGI (OVCAR-4 ovarian) | GI50 (SN12C renal) | TGI (SN12C renal) | GI50 (NCI-H23 lung) | TGI (NCI-H23 lung) | GI50 (EKVX NSCLC) | TGI (EKVX NSCLC) | GI50 (SF-295 CNS) | TGI (SF-295 CNS) | GI50 (SK-MEL-2 melanoma) | TGI (SK-MEL-2 melanoma) |
| --- | --- | --- | --- | --- | --- | --- | --- | --- | --- | --- | --- | --- | --- | --- | --- | --- | --- | --- | --- | --- |
| Cc1[nH]c2ccccc2c1CO | 25.1 µM | 91.6 µM | 26.9 µM | > 100 µM | 31 µM | > 100 µM | 18.5 µM | 93.2 µM | 21.4 µM | 82.6 µM | 15.8 µM | 32.1 µM | 18.6 µM | 46 µM | 20.9 µM | 70.7 µM | 22.5 µM | 44.7 µM | 16.7 µM | 36.6 µM |
| COc1ccc(OC)c(N2CC(O)=C(c3nc4ccccc4s3)C2=N)c1 | 4.16 µM | > 100 µM | 35.7 µM | > 100 µM | 98.7 µM | > 100 µM | 5.22 µM | > 100 µM | 45.6 µM | > 100 µM | 58 µM | > 100 µM | > 100 µM | > 100 µM | 67.3 µM | > 100 µM | 60.9 µM | > 100 µM | 26.1 µM | > 100 µM |
| Nc1nc(Sc2ccc([N+](=O)[O-])c3nonc23)c2ncn(C3OC(CO)C(O)C3O)c2n1 (stereo unspecified) | 0.325 µM | > 37.5 µM | 0.278 µM | 15.2 µM | 0.794 µM | > 46 µM | 0.587 µM | 11.9 µM | 1.89 µM | 17.8 µM | 1.48 µM | 21.8 µM | 1.34 µM | 13.9 µM | 2.88 µM | > 49.8 µM | 1.95 µM | > 100 µM | 0.393 µM | 8.81 µM |
| Cc1nnn(C)c1-c1cnc2c3ccc(C(C)(C)O)cc3n([C@H](c3ccccc3)C3CCOCC3)c2c1 | 0.197 µM | > 100 µM | < 0.01 µM | 27.9 µM | 0.0652 µM | 31.6 µM | < 0.0106 µM | 14.6 µM | 0.033 µM | > 100 µM | 1.4 µM | > 74.9 µM | 0.158 µM | 34.1 µM | 0.221 µM | > 71.7 µM | 0.0555 µM | 20.5 µM | 0.765 µM | 30.7 µM |
| O=CN/C=C/c1ccccc1 |  | > 100 µM |  | > 100 µM |  | > 100 µM |  | > 100 µM |  | > 100 µM |  | > 100 µM |  | > 100 µM |  | > 100 µM |  | > 100 µM |  | > 100 µM |
| COc1ccc(Nc2ncc(I)c(NCCCNC(=O)C3CCC3)n2)cc1 | 4.32 µM | > 100 µM | 10.3 µM | 53.8 µM | 8.6 µM | > 100 µM | 5.88 µM | 52.1 µM | 9.31 µM | 64.2 µM | 1.46 µM | > 100 µM | 5.26 µM | 46.9 µM | 6.48 µM | 76.6 µM | 3.5 µM | > 100 µM | 16.8 µM | 57.1 µM |
| COc1cc(-n2cc(-c3ccc(Cl)cc3)n(-c3ccccc3)c2=O)cc(OC)c1OC | 11.3 µM | > 51.6 µM | 30.6 µM | > 100 µM | 27.7 µM | > 100 µM | 8.54 µM | > 100 µM | 17.9 µM | > 100 µM | 23.3 µM | > 72.5 µM | 35.1 µM | > 100 µM | 18.5 µM | > 100 µM | 19.3 µM | > 100 µM | 17.4 µM | 40 µM |
| CCn1nc(C2CCN(C(=O)CCO)CC2)nc1-c1cnc(N)c(-c2nnc(C(C)(C)C)o2)n1 | 2.33 µM | 39.2 µM | 28 µM | > 76.7 µM | 38.2 µM | > 100 µM | 6.17 µM | > 100 µM | 53.7 µM | > 100 µM | 6.34 µM | > 100 µM | 26.1 µM | > 100 µM | 6.69 µM | > 100 µM | 3.27 µM | > 100 µM | 30.9 µM | > 100 µM |
| CCc1cc2c(c(OCC(F)(F)F)c(C(=O)NC3CCN(C(=O)CO)CC3)n2C)c(=O)n1CC(=O)c1ccccc1 | 37.2 µM | > 100 µM | 27.7 µM | > 100 µM | 45.5 µM | > 100 µM | 52.3 µM | > 100 µM | > 72.2 µM | > 100 µM | > 100 µM | > 100 µM | 99.7 µM | > 100 µM | > 100 µM | > 100 µM | 34.7 µM | > 100 µM | 56.1 µM | > 100 µM |
| CCCCN(CCCC)P(=O)(Oc1ccccc1)Oc1ccccc1 | 6.18 µM | 38.4 µM | 5.12 µM | 26.8 µM | 11.1 µM | 27.4 µM | 4.73 µM | 22 µM | 7.35 µM | 20.5 µM | 5.53 µM | 19.7 µM | 4.56 µM | 17.7 µM | 3.39 µM | 17.2 µM | 3.49 µM | 16.1 µM | 11.8 µM | 28 µM |
| CC(=O)OCC1OC(SC2=N/C(=C\c3ccc(Br)s3)C(=O)N2c2ccccc2)C(OC(C)=O)C(OC(C)=O)C1OC(C)=O (stereo unspecified) | > 100 µM and 37.7 µM | > 100 µM | 37.7 µM and 7.96 µM | > 100 µM and 61 µM | 27.9 µM and 70.3 µM | > 100 µM |  | > 100 µM |  | > 100 µM |  | > 100 µM |  | > 100 µM |  | > 100 µM |  | > 100 µM |  | > 100 µM and 48.9 µM |
| ClCc1ccccc1Cn1cnc2nc(Cl)nc(Cl)c21 | 1.49 µM | 4.09 µM | 0.0318 µM | 0.272 µM | 2.54 µM | 8.88 µM | 0.197 µM | 0.434 µM | 1.76 µM | 4.46 µM | 1.17 µM | 2.56 µM | 2.21 µM | 7.14 µM | 0.62 µM | 1.54 µM | 9.28 µM | 32.3 µM | 1.89 µM | 8.59 µM |
| CC(=O)O[C@@H]1c2c(c3c(=O)c4cccc(O)c4c(=O)c=3c2=[N+]=[N-])[C@H](OC(C)=O)[C@@H](OC(C)=O)[C@]1(C)O | 0.0675 µM | 0.275 µM and 0.358 µM |  | 0.361 µM and 0.394 µM | 0.117 µM | 0.77 µM and 0.461 µM | 0.135 µM | 0.476 µM and 0.298 µM |  | 4.32 µM and 2.16 µM | 0.236 µM and 0.0851 µM | 0.815 µM and 0.288 µM | 0.411 µM | 1.77 µM and 1.59 µM | 0.122 µM | 1.38 µM and 0.663 µM | 0.785 µM | 1.5 µM and 1.56 µM | 0.495 µM | 1.63 µM and 1.18 µM |
| O=S1Nc2cccc(C(F)(F)F)c2S1 (stereo unspecified) |  | 55.4 µM |  | > 100 µM |  | > 100 µM |  | 43 µM |  | > 100 µM |  | > 100 µM |  | > 100 µM |  | > 100 µM |  | > 100 µM |  | 88.6 µM |
| Oc1ccc(N=Nc2ccc(Br)cc2)c(O)c1 | 1.94 µM | 5.56 µM | 1.76 µM | 5.35 µM | 3.69 µM | 21.2 µM | 3.42 µM | 19.4 µM | 6.31 µM | > 100 µM | 6.54 µM | 50 µM | 3.22 µM | 26.9 µM | 3.86 µM | 38.7 µM | 2.64 µM | 11.5 µM | 2.64 µM | 12 µM |
| N#Cc1c(N)nc2c(c1-c1ccc(Cl)cc1)COc1ccc(F)cc1-2 | 22.2 µM | 44.6 µM | 18.7 µM | 41.2 µM | 32.5 µM | > 100 µM | 24.1 µM | 84.7 µM | 34.7 µM | > 100 µM | 19.1 µM | 47.7 µM | 28.4 µM | > 100 µM | 22 µM | 63.3 µM | 16 µM | 37.1 µM | 19 µM | 64.2 µM |
| COC(=O)c1c2c(c(C)[n+]([O-])c1C)C(=O)C(NCc1ccccc1)=CC2=O | 2.21 µM | 5.6 µM | 2.61 µM | 10.1 µM | 2.32 µM | 8.73 µM | 1.7 µM | 4.44 µM | 1.13 µM | 2.4 µM | 2.13 µM | 5.48 µM | 2.03 µM | 6.09 µM | 2.09 µM | 5.41 µM | 2.6 µM | 7.5 µM | 2.63 µM | 9.48 µM |
| Clc1ccc(-c2cnc3c(-c4ccnc(N5CCNCC5)c4)cnn3c2)cc1 | 1.75 µM | 3.7 µM | 1.86 µM | 4.05 µM | 2.21 µM | 4.31 µM | 2.7 µM | 5.18 µM | 1.61 µM | 3.09 µM | 1.7 µM | 3.34 µM | 1.99 µM | 3.66 µM | 1.83 µM | 3.5 µM | 1.88 µM | 3.57 µM | 0.561 µM | 1.69 µM |
| O=C(Nc1ccc(I)cc1F)c1cc(Br)ccc1O | 1.39 µM | 5.6 µM | 0.321 µM | 1.63 µM | 0.83 µM | > 24.2 µM | 0.743 µM | 6.72 µM | 0.442 µM | > 23.1 µM | 0.416 µM | 4.09 µM | 0.472 µM | 3.34 µM | 1.04 µM | 7.22 µM | 1.73 µM | 3.39 µM | 0.386 µM | 2.18 µM |
| COc1ccc(C2(Cl)C(Cl)(C(F)(F)F)C2(Cl)C(F)(F)F)cc1 (stereo unspecified) |  | 15 µM |  | 34.8 µM |  | 25.2 µM |  | 29.6 µM |  | 30 µM |  | 29.2 µM |  | 27.8 µM |  | 31.6 µM |  | 29 µM |  | 27.2 µM |
